Values of other authors, collected in patent US20260256672A1, “COMPOSITION COMPRISING SKIN CARE ACTIVE INGREDIENT OR CELLULOSE COMPOUND” (L'OREAL, priority 2022, published 2026).

Conditions: base-ten logarithm of apparent octan-1-ol/water partition coefficient

Log P | Compound
−1.6 | NC[C@H]1CC[C@H](C(=O)O)CC1 [Tranexamic Acid]
−3.4 | O=C1O[C@H]([C@@H](O)CO)C(O)=C1O[C@H]1O[C@H](CO)[C@@H](O)[C@H](O)[C@H]1O [Ascorbyl Glucoside]
−1.5 | CC(O)C[C@H]1OC[C@@H](O)[C@H](O)[C@H]1O (stereo partly drawn) [Hydroxypropyl Tetrahydropyrantriol, C-beta-D-xylopyranoside-2-hydroxpropane]

Compound | Log P
NC(=O)c1cccnc1 [Niacinamide] | −0.37
